The record followed here is ChEMBL document CHEMBL5143673, “The evaluation of N-propargylamine-2-aminotetralin as an inhibitor of monoamine oxidase” (Bioorg Med Chem Lett, 2022).

The IC50 is the concentration needed to halve the response being measured.

The species entered for data set [1] is Rattus norvegicus. The experiment in a line: Selectivity index, ratio of IC50 for inhibition of rat brain MAOA to IC50 for rat brain MAOB.
Data set [2] deals with T1, MAO-A (Homo sapiens, UniProt P21397).
T1 sequence (P21397 whole entry): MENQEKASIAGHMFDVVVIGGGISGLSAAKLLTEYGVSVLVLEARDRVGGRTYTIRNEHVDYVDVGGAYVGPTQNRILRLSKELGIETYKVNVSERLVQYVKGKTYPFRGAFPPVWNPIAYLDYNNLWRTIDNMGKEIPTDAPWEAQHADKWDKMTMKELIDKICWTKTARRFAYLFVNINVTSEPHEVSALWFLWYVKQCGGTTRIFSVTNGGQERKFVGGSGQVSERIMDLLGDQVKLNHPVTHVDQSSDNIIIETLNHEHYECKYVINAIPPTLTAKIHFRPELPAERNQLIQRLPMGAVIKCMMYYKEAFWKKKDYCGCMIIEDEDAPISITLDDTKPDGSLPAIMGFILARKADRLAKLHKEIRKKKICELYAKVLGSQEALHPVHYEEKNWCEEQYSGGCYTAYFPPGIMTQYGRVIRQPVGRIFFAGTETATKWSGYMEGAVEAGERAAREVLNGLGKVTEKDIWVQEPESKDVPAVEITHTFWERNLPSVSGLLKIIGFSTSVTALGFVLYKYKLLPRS
Description: Inhibition of human recombinant MAOA assessed as enzyme activity recovery level using kynuramine substrate incubated for 15 mins followed by 24 hrs dialysis by fluorescence spectrophotometry. It counts as toxicity. Details: scale not given: the % may be the effect or the level left. The following applies: probe kynuramine, read-out: Activity.

Data set [3] has as its target T2, Amine oxidase [flavin-containing] B (Rattus norvegicus, UniProt P19643).
T2 sequence (P19643 whole entry): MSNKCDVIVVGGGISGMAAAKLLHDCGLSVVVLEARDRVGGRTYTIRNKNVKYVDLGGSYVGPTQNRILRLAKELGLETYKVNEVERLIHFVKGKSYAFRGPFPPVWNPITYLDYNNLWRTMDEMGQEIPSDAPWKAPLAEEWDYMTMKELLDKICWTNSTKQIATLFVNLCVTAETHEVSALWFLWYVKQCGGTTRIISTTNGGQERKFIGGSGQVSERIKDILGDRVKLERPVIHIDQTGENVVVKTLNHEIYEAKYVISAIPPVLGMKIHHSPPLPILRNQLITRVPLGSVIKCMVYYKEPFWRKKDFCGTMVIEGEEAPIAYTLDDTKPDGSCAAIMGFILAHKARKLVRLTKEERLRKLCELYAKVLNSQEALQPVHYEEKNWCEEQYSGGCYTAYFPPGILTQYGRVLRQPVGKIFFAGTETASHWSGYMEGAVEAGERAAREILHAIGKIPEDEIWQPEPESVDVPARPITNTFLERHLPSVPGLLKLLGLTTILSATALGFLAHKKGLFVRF
The experiment in a line: Inhibition of rat brain MAOB using kynuramine substrate by fluorescence spectrophotometry.

Data set [4] concerns the target T3, Amine oxidase [flavin-containing] A (Rattus norvegicus, UniProt P21396).
T3 sequence (P21396 whole entry): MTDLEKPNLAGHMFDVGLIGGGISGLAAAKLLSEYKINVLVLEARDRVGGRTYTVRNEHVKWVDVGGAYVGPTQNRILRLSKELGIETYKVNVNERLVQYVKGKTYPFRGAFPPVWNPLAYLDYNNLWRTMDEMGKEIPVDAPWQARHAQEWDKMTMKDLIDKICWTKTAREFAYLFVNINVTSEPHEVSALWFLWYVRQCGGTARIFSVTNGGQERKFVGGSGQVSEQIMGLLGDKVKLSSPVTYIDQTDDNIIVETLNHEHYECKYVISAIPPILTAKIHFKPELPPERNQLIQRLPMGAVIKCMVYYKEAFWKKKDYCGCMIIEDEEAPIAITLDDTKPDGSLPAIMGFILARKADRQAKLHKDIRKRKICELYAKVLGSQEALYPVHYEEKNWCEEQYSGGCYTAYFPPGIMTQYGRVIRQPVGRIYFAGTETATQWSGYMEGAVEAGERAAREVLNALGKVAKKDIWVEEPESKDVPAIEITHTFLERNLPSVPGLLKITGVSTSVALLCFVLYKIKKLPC
The experiment in a line: Inhibition of rat brain MAOA using kynuramine substrate by fluorescence spectrophotometry. It counts as toxicity.

Data set [5] deals with T1, MAO-A. The experiment in a line: Inhibition of human recombinant MAOA assessed as enzyme activity recovery level at 4 times IC50 using kynuramine substrate incubated for 15 mins followed by 24 hrs dialysis by fluorescence spectrophotometry. It counts as toxicity. Also noted: scale not given: the % may be the effect or the level left. The settings on record: probe kynuramine, read-out: Activity.

In data set [6] the target is T4, Amine oxidase [flavin-containing] A (Homo sapiens, UniProt P21397).
T4 sequence (P21397 whole entry): T1 sequence (P21397 whole entry)
Description: Inhibition of human recombinant MAOA using kynuramine substrate incubated for 20 mins by fluorescence spectrophotometry. It counts as toxicity.

Data set [7] concerns the target T5, Amine oxidase [flavin-containing] B (Homo sapiens, UniProt P27338).
T5 sequence (P27338 whole entry): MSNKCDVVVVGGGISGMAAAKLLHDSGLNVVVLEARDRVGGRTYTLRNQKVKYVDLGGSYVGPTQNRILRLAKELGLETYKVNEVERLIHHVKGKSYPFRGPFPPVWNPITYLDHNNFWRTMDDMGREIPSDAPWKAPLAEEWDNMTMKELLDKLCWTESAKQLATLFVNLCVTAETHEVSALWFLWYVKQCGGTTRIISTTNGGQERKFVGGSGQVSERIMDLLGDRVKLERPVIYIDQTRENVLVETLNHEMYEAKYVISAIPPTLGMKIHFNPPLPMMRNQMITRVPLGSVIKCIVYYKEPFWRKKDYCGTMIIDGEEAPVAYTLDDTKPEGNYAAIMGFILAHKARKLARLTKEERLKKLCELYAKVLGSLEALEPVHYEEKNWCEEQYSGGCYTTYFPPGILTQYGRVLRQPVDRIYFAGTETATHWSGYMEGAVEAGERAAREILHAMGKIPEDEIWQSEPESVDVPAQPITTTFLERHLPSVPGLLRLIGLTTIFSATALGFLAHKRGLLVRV
The experiment in a line: Time dependent inhibition of human recombinant MAOB at 0.25 to 1.25 uM using kynuramine substrate by fluorescence spectrophotometry based L-B plot analysis.

The species named for data set [8] is Homo sapiens. The experiment in a line: Selectivity index, ratio of IC50 for inhibition of human recombinant MAOA to IC50 for human recombinant MAOB.
Data set [9] deals with T5, Amine oxidase [flavin-containing] B. The experiment in a line: Inhibition of human recombinant MAOB assessed as enzyme activity recovery level at 4 times IC50 using kynuramine substrate incubated for 15 mins followed by 24 hrs dialysis by fluorescence spectrophotometry. Details: scale not given: the % may be the effect or the level left. The following applies: 0.25 h.

The target is the same in data set [10]. Description: Inhibition of human recombinant MAOB using kynuramine substrate incubated for 20 mins by fluorescence spectrophotometry.
For data set [11] the target is unchanged. The experiment in a line: Time dependent inhibition of human recombinant MAOB at 0.25 to 1.25 uM using kynuramine substrate by fluorescence spectrophotometry based graphing of slopes of Lineweaver-Burk plots versus inhibitor concentration.
For data set [12] the target is unchanged. Description: Inhibition of human recombinant MAOB assessed as enzyme activity recovery level at 4 times IC50 using kynuramine substrate incubated for 15 mins followed by without dialysis by fluorescence spectrophotometry. The following applies: 0.25 h. Details: scale not given: the % may be the effect or the level left.
Data set [13] shares this target. The experiment in a line: Time dependent inhibition of human recombinant MAOB at […] using kynuramine substrate incubated for 5 to 35 mins by fluorescence spectrophotometry. The following applies: TDE = time-dependent effect, time 5-35 min.
For data set [14], the target named is T1, MAO-A. Description: Resistance index, ratio of IC50 for toloxatone to IC50 for test compound for inhibition of human recombinant MAOA using kynuramine substrate incubated for 20 mins by fluorescence spectrophotometry. The settings on record: probe kynuramine, read-out: Ratio IC50. It is filed as toxicity.
Data set [15] concerns the target T1, MAO-A. The experiment in a line: Inhibition of human recombinant MAOA assessed as enzyme activity recovery level at 4 times IC50 using kynuramine substrate incubated for 15 mins followed by without dialysis by fluorescence spectrophotometry. It is filed as toxicity. Also noted: scale not given: the % may be the effect or the level left. The settings on record: probe kynuramine, read-out: Activity.

With `C#CCN(C)C1CCc2ccccc2C1` (racemic) [listing 1 of 2 here], in [1], the Ratio IC50 is 1.2.

Take `C#CCN(C)C1CCc2ccccc2C1` (single isomer, unassigned; (+)) [listing 1 of 2 here]: in data set [1], the Ratio IC50 came out at 8.8.

Consider `C#CCN(C)Cc1ccccc1` [PARGYLINE], for which, in [2], the activity at 0.25 h amounted to 0.9%.

Take `C#CCN(C)C1CCc2ccccc2C1` (single isomer, unassigned; (+)) [listing 2 of 2 here]: the IC50 in data set [3] came out at 16 nM; in [4] it was 140 nM.

Turning to `C#CCN(C)C1CCc2ccccc2C1` (single isomer, unassigned; (-)) [listing 1 of 2 here], the half-inhibitory concentration (IC50) stood at 88 nM in [3] and 46 nM in data set [4].

As for `C#CCN(C)C1CCc2ccccc2C1` (single isomer, unassigned; (-)) [listing 2 of 2 here], the Ratio IC50 in data set [1] worked out at 0.5.

As to `C#CCN(C)C1CCc2ccccc2C1` (racemic) [listing 2 of 2 here], the IC50 is 41 nM in data set [3] and 51 nM in [4].

For `C#CCNC1CCc2ccccc2C1` (racemic), the results for the activity at 0.25 h in data set [5] and in data set [15] were 102% and 46%, respectively. Further, the IC50 is 721 nM in data set [6] and 14600 nM in data set [10]. The Ki in [7] came out at 460 nM; in data set [11] it was 435 nM. For the same molecule, the Ratio IC50 in data set [8] came out at 0.05. Also, the Activity in data set [9] amounted to 7.5%; in [12], 0.3%. In addition, in data set [13], the TDI entry is “Tde”. Moreover, in data set [14], the selectivity ratio at 20 min is 5.
